Experimental data published in patent EP4800013A1, “PARG INHIBITOR” (Shanghai Qilu Pharmaceutical Research and Development …, priority 2023, dated 2025).

Key:
PARG = target: T1, PARG (Homo sapiens, UniProt Q86W56); assay: Enzymatic inhibitory activity against PARG, HTRF assay; assay type: biochemical; conditions: HTRF; PARylated PARP1 protein as substrate; 60 minutes at room temperature; read-out: IC50 against PARG enzyme
T1 construct: made in house
In short: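 Purified PARG pre-incubated with compounds (top 10 µM, 3- to 5-fold dilutions, duplicates) 15 min at room temperature, then PARylated PARP1 substrate added for 60 min in Tris pH 7.4 buffer with DTT, EDTA/EGTA, KCl. HTRF (His-Tb/SA-XL665) read-out; IC50 by four-parameter logistic fit, normalised to DMSO and control-inhibitor wells.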

PXR = target: T2, PXR (Homo sapiens, UniProt O75469); assay: PXR activation in stably transfected DPX2 cells (CYP3A4 promoter-driven luciferase reporter); assay type: cell-based; conditions: 24 or 48 hours, test concentration not given
T2 construct: host or cells: DPX2 (HepG2 stably transfected)
T2 sequence (O75469 1-434): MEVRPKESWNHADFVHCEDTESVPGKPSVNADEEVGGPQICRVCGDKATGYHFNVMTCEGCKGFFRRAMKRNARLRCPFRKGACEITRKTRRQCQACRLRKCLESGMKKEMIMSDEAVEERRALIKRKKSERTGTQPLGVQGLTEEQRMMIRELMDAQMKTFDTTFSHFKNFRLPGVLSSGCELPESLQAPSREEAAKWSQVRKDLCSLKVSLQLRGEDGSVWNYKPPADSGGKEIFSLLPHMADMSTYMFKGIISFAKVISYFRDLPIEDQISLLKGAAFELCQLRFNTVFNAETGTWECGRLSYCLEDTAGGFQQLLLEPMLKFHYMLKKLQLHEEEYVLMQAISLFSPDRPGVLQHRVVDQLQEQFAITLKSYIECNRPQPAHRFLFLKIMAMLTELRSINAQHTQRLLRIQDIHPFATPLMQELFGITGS
Procedure: The purpose of this study was to evaluate the potential of the compounds of the present disclosure and the comparative compound (WO2023183850A1, compound of formula A) to activate PXR in vitro, thereby inducing drug-metabolizing enzymes.
DPX2 cells (HepG2 cell line stably transfected with PXR and a CYP3A4 promoter-driven luciferase reporter gene) were purchased from Puracyp Inc (Carlsbad, CA). Fetal bovine serum was purchased from Acantor.
• 1) DPX2 cells were cultured in medium containing 10% fetal bovine serum (FBS). • 2) DPX2 cells were cultured in a T-75 flask in a cell culture incubator at 37°C with 5% CO2 and 95% relative humidity. The cells were subjected to trypsinization when they reached 80% to 90% confluence. • 3) The medium was aspirated from the T-75 flask, and the cells were rinsed with 10 mL of PBS. After removing PBS, 3 to 5 mL of trypsin was added. The flask was incubated at 37°C for approximately 5 minutes or until cell detachment and floating were observed. […] After 24 or 48 hours of cell treatment, quantification of PXR activation was performed. • 8) CellTiter Fluor™ Cell Viability Assay Kit and One-Glo Luciferase Assay Kit were equilibrated to room temperature. […] 25 µL of the prepared cell viability assay system was gently added to each well, followed by incubation for 30 minutes in the cell culture incubator at 37°C. • 10) The 384-well plate was removed from the cell culture incubator, and fluorescence of individual wells was measured using a microplate reader in fluorescence mode with excitation at 400 nm and emission at 505 nm. Subsequently, 25 µL of the prepared luciferase assay system was gently added to each well, followed by vortexing and incubation at room temperature for 5 minutes, and luminescence of individual wells was measured using a microplate reader.
Cell viability percentage was calculated using the following formula: Cell viability (%) = Isample / Ivehicle × 100, where Isample is the mean fluorescence intensity of treated wells; Ivehicle is the mean fluorescence intensity of cells treated with 0.1% DMSO. […]

T1 sequence (Q86W56 whole entry): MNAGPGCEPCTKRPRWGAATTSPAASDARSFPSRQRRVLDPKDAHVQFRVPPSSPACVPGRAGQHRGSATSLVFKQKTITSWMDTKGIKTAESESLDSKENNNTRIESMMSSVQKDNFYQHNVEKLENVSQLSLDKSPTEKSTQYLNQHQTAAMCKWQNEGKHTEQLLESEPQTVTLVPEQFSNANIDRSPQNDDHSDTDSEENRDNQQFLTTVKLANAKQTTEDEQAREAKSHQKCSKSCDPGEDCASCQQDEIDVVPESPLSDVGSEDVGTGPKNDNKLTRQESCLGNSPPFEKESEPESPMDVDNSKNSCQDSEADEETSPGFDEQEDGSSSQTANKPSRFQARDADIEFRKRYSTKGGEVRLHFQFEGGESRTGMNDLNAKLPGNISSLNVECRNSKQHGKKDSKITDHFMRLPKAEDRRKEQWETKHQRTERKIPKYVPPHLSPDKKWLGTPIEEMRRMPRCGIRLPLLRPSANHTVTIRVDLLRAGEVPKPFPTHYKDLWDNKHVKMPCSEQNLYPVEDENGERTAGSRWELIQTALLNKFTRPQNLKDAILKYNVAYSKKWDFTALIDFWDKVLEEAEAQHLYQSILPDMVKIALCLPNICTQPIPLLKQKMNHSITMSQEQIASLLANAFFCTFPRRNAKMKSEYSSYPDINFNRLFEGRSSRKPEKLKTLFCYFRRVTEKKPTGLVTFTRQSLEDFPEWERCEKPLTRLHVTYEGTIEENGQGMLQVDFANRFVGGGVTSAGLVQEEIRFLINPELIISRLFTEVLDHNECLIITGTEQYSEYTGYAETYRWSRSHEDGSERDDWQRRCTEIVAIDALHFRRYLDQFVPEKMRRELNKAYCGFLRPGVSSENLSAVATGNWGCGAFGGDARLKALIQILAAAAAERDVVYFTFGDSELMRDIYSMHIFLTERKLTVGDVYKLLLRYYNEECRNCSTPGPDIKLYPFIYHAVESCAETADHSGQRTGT

CCc1nc2n(-c3nnc(C(F)F)s3)c3cc(S(=O)(=O)NC4(C)CC4)cc(N4C[C@H](C)N[C@@H](C)C4)c3n2n1 [Compound 065R]
IC50 (PARG): 0.4 nM
Fold activation (PXR): 1.45

C[C@H]1CN(c2cc(S(=O)(=O)NC3(C)CC3)cc3c2n2nc(C(F)F)nc2n3-c2nnc(C(F)F)s2)C[C@H](C)N1 [Compound 065S]
IC50 (PARG): 1.4 nM
Fold activation (PXR): 1.82

C[C@H]1CN(c2cc(S(=O)(=O)NC3(C)CC3)cc3c2n2nc(C(F)(F)F)nc2n3-c2nnc(C(F)F)s2)C[C@H](C)N1 [Compound 065W]
IC50 (PARG): 0.8 nM
Fold activation (PXR): 1.11
